Results on two compounds are retold here after PubChem BioAssay AID504930 (The Scripps Research Institute Molecular Screening Center, 2011).

The test system of the test is granule cell progenitor proliferation, radioactive thymidine incorporation. In words: granule cell progenitor growth inhibitors – radioactive thymidine incorporation, counter-screen for Wee1 degradation inhibitor project, late-stage follow-up (AID 504930).

By IC50 is commonly meant the concentration that gives 50% inhibition. Take `O=[N+]([O-])c1cccc2[nH]c(CNc3nc(N4CCOCC4)nc4c3ncn4-c3ccsc3)nc12`: the IC50 was 4.61 nM.
On to `c1ccc2[nH]c(CNc3nc(N4CCOCC4)nc4c3ncn4-c3ccsc3)nc2c1`, for which the IC50 is 11.6 nM.
